Measurements as given in patent US6344208B1, “Pheromone baits for social insects” (priority 1989, dated 2002).

How the values were obtained:
Assay type in all cases: in vivo
Acromyrmex octospinosus = assay: Research and laboratory trials on behaviour induced by synthetic alarm pheromone components; details: research by the applicant
Text: Recent research by the applicant on the neotropical leaf-cutting ant Acromyrmex octospinosus has shown that […] components of the alarm pheromone of this ant, namely 3-octanol and 3-octanone, attract nestmates and induce the laying of trails around the source which ensure that nestmates are then attracted towards the source for some time and attack the source on arrival.
It is expected that this surprising effect will be shown by synthetic components of pheromones of other insects, especially social insects.
The synthetic pheromone compounds may therefore be used in food baits in contrast to what would be expected.

Atta sexdens [1] = assay: Field Trial 3: Mirex sachets with single pheromone component placed 1 metre from nest entrance on active trails; details: Trial 3, 50 μl component on rubber septum, components tested separately
Experimental: (§1) The insecticide bait Mirex was used in all the trials. In Trials 3 and 4 the bait was presented to the ants in black plastic sachets 8 cm^2 placed inside wire cages, which provided protection from cattle, horses, small manamals and birds. The empty cages were placed in the field 24 hours prior to the start of the experiment. The Mire sachets were prepared and a component of mandibular gland alarm pheromone of the ant species concerned was added to the treatment sachets. In Trial 5 the sachets were not placed in cages but were scattered randomly at the cutting site. Five components or the alarm pheromone were tested. Rubber septa, used to provide a slow-release substrate, were dosed with 50 μl of component and then sealed inside the Mirex sachets. Control sachets were sealed with untreated rubber septa. The sachets were transferred immediately to the field sites. The fate of the sachets was then monitored over a 3 day period.
Trial 3: Sachets were placed 1 metre from the nest entrance hole on active trials of A. sexdens. Five synthetic components of the alarm pheromone were tested, separately; citral, farnesol, 6-methyl-5-hepten-2-one, 4-methyl-3-heptanone and geraniol. […] The results for the five synthetic pheromones were pooled.

Atta sexdens [2] = assay: Field Trial 5: Mirex sachets with single pheromone component scattered randomly at cutting site; details: Trial 5, 50 μl component; for discovery and opening of sachets: sachets over about 10 m^2 where ants were cutting leaves
Experimental: as §1
Trial 5: Sachets containing, separately, citral (E), 4-methyl-3-heptanone H and 6-methyl-5-hepten-2-one (G) were distributed randomly over an area of about 10 m^2 where ants were actively cutting leaves.

SMILES | behaviour induced in nestmates by the alarm pheromone component (Acromyrmex octospinosus) | fate of test sachets (Atta sexdens [1]) | time until all the bait had been transported back to the nest (Atta sexdens [2]) [min] | discovery and opening of sachets (Atta sexdens [2])
CCCCCC(O)CC (centres unmarked) [3-octanol] | mainly controls attraction to the source, the laying of pheromone trails radiating out from the source, and biting |  |  | 
CCCCCC(=O)CC [3-octanone] | mainly causes recruitment of ants from the peripheral area |  |  | 
CCCC(C)C(=O)CC (centres unmarked) [4-methyl-3-heptanone] |  | cut open and the contents transported into the nest | ≤ 30 | discovered and opened immediately
CC(=O)CCC=C(C)C [6-methyl-5-hepten-2-one] |  | cut open and the contents transported into the nest |  | discovered and opened immediately
CC(C)=CCCC(C)=CC=O [citral] |  | cut open and the contents transported into the nest |  | discovered and opened immediately
CC(C)=CCCC(C)=CCCC(C)=CCO [farnesol] |  | cut open and the contents transported into the nest |  | 
CC(C)=CCC/C(C)=C/CO [geraniol] |  | cut open and the contents transported into the nest |  | 
